Our source for the IC50 and Activity values is ChEMBL document CHEMBL4392880, “Bioactive Diterpenoids from the Stems of Euphorbia antiquorum” (J Nat Prod, 2019).

A word on the IC50: it is the concentration that gives 50% inhibition.

Data set [1] has as its system BV-2. As to the kind of experiment: Antiinflammatory activity in mouse BV2 cells assessed as inhibition of LPS-induced nitric oxide production incubated for 24 hrs by Griess assay. The note with it: BV-2, 24 h. Format: functional, cell-based. (In general: Griess reagent forms a coloured azo dye with nitrite.)
The subject of data set [2] is BV-2. As to the kind of experiment: Cytotoxicity against mouse BV2 cells assessed as effect on cell survival by MTT assay. Format: cell-based. For orientation: Tetrazolium assays rely on reduction of a dye to a coloured formazan, in cell work by metabolically active cells.

Regarding `C/C=C(\C)C(=O)O[C@H]1[C@H]2[C@@H]([C@@H](OC(C)=O)[C@@H](C)C(=O)[C@@]34C[C@H](C)[C@H](OC(=O)c5ccccc5)[C@]3(/C=C(\C)[C@H]1O)O4)C2(C)C`, in the data set with BV-2 [1], the IC50 came to 14.5 µM. Besides, the Activity entry in the data set with BV-2 [2] is given as “Non-Toxic”.
Turning to `C/C=C(\C)C(=O)O[C@H]1[C@H]2[C@@H]([C@@H](OC(C)=O)[C@@H](C)C(=O)[C@@]34C[C@H](C)[C@H](OC(C)=O)[C@]3(/C=C(\C)[C@H]1O)O4)C2(C)C`, the IC50 with BV-2 [1] is over 100 µM. The Activity result with BV-2 [2] is “Non-Toxic”.
On to `CC(=O)O[C@H]1CCC(C)(C)[C@H]2CC[C@@]34O[C@@H]3C3=C(C)C(=O)O[C@@H]3C[C@H]4[C@]12C`, for which the IC50 with BV-2 [1] came out at 24.1 µM. In the data set on BV-2 [2], the Activity entry is listed as “Non-Toxic”.
For the compound `CCCC(=O)OC[C@]1(C)C(=O)CC[C@@]2(C)[C@@H]3C[C@@H]4CC[C@@]3(CC[C@@H]21)C[C@@]4(O)CO`, the IC50 in the data set with BV-2 [1] was determined as 42.4 µM. Besides, in the data set on BV-2 [2], the Activity entry was “Non-Toxic”.
In the case of `CSC(=N)N.O=S(=O)(O)O`, the IC50 with BV-2 [1] was 3.1 µM. Moreover, in the data set with BV-2 [2], the Activity entry was “Non-Toxic”.
On the same counts, the results for `C=C1C[C@@]23CC[C@H]4[C@@](C)(CCC(=O)[C@@]4(C)COC(C)=O)[C@@H]2C[C@@H]1[C@@H](O)C3=O` are over 100 µM and “Non-Toxic”.
The matching figures for `C=C1C[C@@]23CC[C@H]4[C@@](C)(CCC(=O)[C@@]4(C)COC(=O)CCC)[C@@H]2C[C@@H]1CC3=O`: over 60 µM and “Non-Toxic”.
On the same counts, the results for `C=C1C[C@]23CC[C@H]1C[C@H]2[C@]1(C)CCC(=O)[C@@](C)(CO)[C@H]1CC3` are 25.4 µM and “Non-Toxic”.
`CCCC(=O)OC[C@]1(C)C(=O)CC[C@@]2(C)[C@@H]3CC[C@@H]4C[C@@]3(CC[C@@H]21)C[C@@]4(O)CO`: the IC50 in the data set with BV-2 [1] was 42.9 µM. In addition, the Activity entry in the data set with BV-2 [2] is given as “Non-Toxic”.
On the same counts, the results for `C=C1C[C@@]23CC[C@H]4[C@@](C)(CCC(=O)[C@@]4(C)COC(=O)/C(C)=C/C)[C@@H]2C[C@@H]1[C@@H](O)C3=O` are 44.3 µM and “Non-Toxic”.
The matching figures for `C=C1C[C@@]23CC[C@H]4[C@@](C)(CCC(=O)[C@@]4(C)COC(=O)CCC)[C@@H]2C[C@@H]1[C@@H](O)C3=O`: over 100 µM and “Non-Toxic”.
`CC1(C)CCC[C@]2(C)[C@@H]1CC[C@@]13O[C@@H]1C1=C(CO)C(=O)OC1=C[C@@H]23`: in the data set with BV-2 [1], the IC50 turned out to be 9.1 µM. The Activity result in the data set with BV-2 [2] is “Non-Toxic”.
As to `C=C1C[C@@]23CC[C@H]4[C@@](C)(CCC(=O)[C@@]4(C)COC(=O)/C(C)=C/C)[C@@H]2C[C@@H]1CC3=O`, the IC50 with BV-2 [1] was 28.8 µM. Further, the Activity result with BV-2 [2] is listed as “Non-Toxic”.
On the same counts, the results for `C/C=C(\C)C(=O)O[C@H]1[C@H]2[C@@H]([C@@H](OC(C)=O)[C@@H](C)C(=O)[C@@]34C[C@H](C)[C@H](OC(=O)/C(C)=C/C)[C@]3(/C=C(\C)[C@H]1O)O4)C2(C)C` are 26.9 µM and “Non-Toxic”.
Regarding `C=C[C@]1(C)C=C2CC[C@H]3[C@](C)(C=O)[C@@H](O)CC[C@]3(C)[C@H]2CC1` [SANDARACOPIMARADIENOLAL], in the data set on BV-2 [1], the IC50 is over 10 µM. Moreover, the Activity result in the data set on BV-2 [2] is “Non-Toxic”.
On the same counts, the results for `CC1(C)C(=O)CC[C@]2(C)[C@@H]1CC[C@@]13C[C@H](CC[C@H]12)[C@@](O)(CO)C3` are over 100 µM and “Non-Toxic”.
With `CC1=C2[C@H]3O[C@]34CC[C@@H]3C(C)(C)CCC[C@@]3(C)[C@@H]4C[C@H]2OC1=O`, the IC50 in the data set on BV-2 [1] was 15 µM. For the same compound, in the data set with BV-2 [2], the Activity result is given as “Non-Toxic”.
The matching figures for `CCC(=O)OC[C@]1(C)C(=O)CC[C@@]2(C)[C@@H]3C[C@@H]4CC[C@@]3(CC[C@@H]21)C[C@@]4(O)CO`: 76.6 µM and “Non-Toxic”.
For `C=C1C[C@@]23CC[C@H]4[C@@](C)(CCC(=O)[C@@]4(C)COC(C)=O)[C@@H]2C[C@@H]1CC3=O`, the IC50 with BV-2 [1] came out at 77 µM. Moreover, in the data set on BV-2 [2], the Activity entry is recorded as “Non-Toxic”.
